Measured values: US20070060599A1, “Crystalline forms of [1S-(1alpha, 3alpha, 4beta)]-2-amino-1,9-dihydro-9-[4-hydroxy-3-(hydroxymethyl)-2-methylenecyclopentyl]-6H-purin-6-one” (priority 2005, published 2007)

Test system: hepatitis B virus infection
Assay: once daily administration of low dose entecavir pharmaceutical compositions to treat hepatitis B virus infection
Format: in vivo, human
Experimental: In a yet another aspect, the invention provides pharmaceutical compositions comprising Form N-2 and/or Form IP.3-4 crystals of [1S-(1α,3α,4β)]-2-amino-1,9-dihydro-9-[4-hydroxy-3-(hydroxymethyl)-2-methylenecyclopentyl]-6H-purin-6-one and at least one pharmaceutically acceptable carrier or excipient. The pharmaceutical compositions may contain a low dose of from about 0.001 mg to about 25 mg of the active drug ingredient for once daily administration to treat hepatitis B virus infection in an adult human patient or a pediatric patient. Preferred pharmaceutical compositions contain from about 0.01 mg to about 10 mg of the active drug ingredient and most preferred pharmaceutical compositions contain from about 0.01 to about 5 mg of the active drug ingredient. Such preferred and most preferred pharmaceutical compositions are also administered once daily to treat hepatitis B virus infection in an adult or a pediatric patient.

`C=C1[C@H](CO)[C@@H](O)C[C@@H]1n1cnc2c(=O)[nH]c(N)nc21` [entecavir, [1S-(1α,3α,4β)]-2-amino-1,9-dihydro-9-[4-hydroxy-3-(hydroxymethyl)-2-methylenecyclopentyl]-6H-purin-6-one monohydrate] was tested, and the “effectiveness in treating hepatitis B virus infection” value was “effective” and the undesirable side effects (compared with the high dose regimen of U.S. Pat. No. 5,206,244) was “without undesirable side effects”.
